# Results published in paper PMC5006034 (Scientific Reports, 2016).
# Target: T1, hP2X2R (Homo sapiens, UniProt Q9UBL9)
# T1 construct: gene P2RX2
# T1 sequence (Q9UBL9 1-471): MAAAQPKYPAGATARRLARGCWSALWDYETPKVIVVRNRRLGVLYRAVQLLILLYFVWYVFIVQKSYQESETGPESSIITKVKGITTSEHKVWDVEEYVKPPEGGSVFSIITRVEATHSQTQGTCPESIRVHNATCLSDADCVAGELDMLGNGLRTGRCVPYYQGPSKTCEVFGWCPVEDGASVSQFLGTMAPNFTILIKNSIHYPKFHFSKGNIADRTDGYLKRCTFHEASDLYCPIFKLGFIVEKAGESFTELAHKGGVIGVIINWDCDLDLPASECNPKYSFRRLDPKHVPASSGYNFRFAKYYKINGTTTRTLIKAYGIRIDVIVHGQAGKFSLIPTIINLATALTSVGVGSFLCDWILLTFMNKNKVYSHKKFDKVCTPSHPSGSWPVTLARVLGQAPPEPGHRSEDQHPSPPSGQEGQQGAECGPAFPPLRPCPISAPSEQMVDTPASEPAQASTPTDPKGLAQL
# Assay: Ca2+ imaging in cells expressing hP2X2R (outsourced selectivity assay)
# Format: cell-based
smiles,measurement,value
"O=C1CC(=O)N(c2cccc(-c3noc(=S)[nH]3)c2)c2ccc3ccccc3c2N1 [NP-1815-PX, 5-[3-(5-thioxo-4H-[1,2,4]oxadiazol-3-yl)phenyl]-1H-naphtho[1,2-b][1,4]diazepine-2,4(3H,5H)-dione]",IC50,7.3 µM
